Assay results published in patent US20190030042A1, “Method for Treating Dementia with Lewy Bodies” (BrainX CORPORATION, priority 2017, published 2019).

System: DLB rats
Assay: Object recognition test in DLB rats
Format: in vivo, rat
Conditions: group A3, 100 mg/kg/day IP for 27 days, test on 27th day, p<0.05
Method: Saline is also used to be administrated to the normal rats of group A1.
Recognition ability of the rats of groups A1-A3 is measured using the object recognition test (Ho et al., Behav Brain Res 268: 177-184, 2014). Specifically, on the 25th & 26th day, the rat “M” under the test is placed in an open box, shown as FIG. 2a, for 5 minutes. Three flavorless objects (objects O1, O2 & O3) with the same size, color, shape and material are respectively fixed at three corners of the open box.
On the 27th day, the rat “M” under the test is first placed in the open box shown as FIG. 2a, and the time spent exploring the object O1 (T01) and the total time spent exploring the objects O1, O2 & O3 (TO1+O2+O3) are recorded, respectively. The percentage of the exploration time spent on the object O1 is calculated as (TO1/TO1+O2+O3)*100%. After 5 minutes, a novel object O4 with different size, color, shape and material is used to replace the object O1 (shown in FIG. 2b), and the rat “M” under the test is placed in the open box. The time spent exploring the novel object O4 (TO4) and the total time spent exploring the objects O2 & O3 and the novel object O4 (TO2+O3+O4) are respectively recorded, and the percentage of the exploration time spent on the novel object O4 is calculated as (TO4/TO2+O3+O4)*100%.

CO/N=C(\C(=O)N[C@@H]1C(=O)N2C(C(=O)O)=C(CSc3nc(=O)c(=O)[nH]n3C)CS[C@H]12)c1csc(N)n1 [ceftriaxone]
recognition of the novel object O4 (percentage of time exploring object): can recognize the novel object O4
